Experimental data from patent publication US6265443A, “Method for treating neuronal injury with carboxyfullerene” (priority 1997, dated 2001).
Entries after “also recorded” stand apart in the source; their conditions may differ.

Experiments:
[1] = native C60; toluene or benzene; cited from earlier work
[2] = EPR free radical scavenging (hydroxyl and superoxide); settings: for anti-oxidant potency, isomers compared: EPR analysis
Description: FIGS. 9A and 9B show the EPR spectra of OH (from 100 μM H2 O2 in Fe^2+ by the Fenton reaction) and O2 - (from xanthine+xanthine oxidase) radicals with 100 mM 5,5-dimethyl-1-pyrolline-N-oxide (DMPO) as the spin-trapping agent. Hydroxyl radical (FIG. 9A): OH in the presence of […] alone (top), in the presence of 4 mM O-3a (middle), or in the presence of 4 mM R-3b (bottom). Superoxide radical (right): O2 - in DMPO alone (top), in the presence of 400 mM O-3a (middle), in the presence of 400 mM R-3b (bottom). […] The sample was analyzed in a quartz flat cell (60×10×0.25 mm) in a Bruker 200, X-band EPR spectrometer. Settings were power=1.6 mW, modulation=1 G, field modulation=100 Hz, R.G.=3.2×10^5.

[3] = tested on: cortical neurons; test: NMDA-induced excitotoxic neuronal death in neuron-astrocyte co-cultures (LDH efflux); format: cell-based, mouse
Description: (§1) Mouse embryos (gestational day 15) are removed from pregnant anesthetized Swiss-Webster mice, and the neocortex is dissected away from other brain structures. After brief incubation in trypsin, the cells are dissociated by trituration, and the cell suspension is then diluted into plating medium and plated onto previously-prepared 24-well Plastek culture plates coated with poly-D-lysine/laminin (for neuronal cultures) or onto an existing bed of astrocytes (for co-cultures). After 1-2days in vitro, a partial exchange with glial conditioned medium is made for "pure" neuronal cultures, and cytosine arabinoside (3 μM) is added immediately after feeding to inhibit glial proliferation. Mixed cultures are fed biweekly with growth medium until 11-12 days in vitro, when they are fed with serum-free MS containing 2 mM L-glutamine. Unless otherwise stated, cells were used at 14-16 days in vitro.
Carboxyfullerene (3-300 (M) was co-applied to neuron-astrocyte co-cultures described above with NMDA for assessment of neuroprotection. Brief exposure to NMDA in the presence of the carboxyfullerene was carried out by triple exchange of the medium with HBBSS, followed by addition of 50 μM-500 μM NMDA plus carboxyfullerene for 10 minutes. The NMDA and carboxyfullerene were removed by quadruple exchange of the medium with MS, and the cultures were placed in the humidified, CO2 (5%), 37° C. incubator for 24 hours, when the extent of injury was assessed.

[4] = tested on: hepatocytes; test: Protection in hepatocytes; format: cell-based
[5] = tested on: cortical neurons; test: AMPA-induced excitotoxic neuronal death in neuron-astrocyte co-cultures (LDH efflux); format: cell-based, mouse
Description: as §1

[6] = EPR spin-trap (DMPO) superoxide radical scavenging, xanthine + xanthine oxidase; settings: xanthine oxidase with xanthine
Description: (§2) FIGS. 9A and 9B show the EPR spectra of OH (from 100 μM H2 O2 in Fe^2+ by the Fenton reaction) and O2 - (from xanthine+xanthine oxidase) radicals with 100 mM 5,5-dimethyl-1-pyrolline-N-oxide (DMPO) as the spin-trapping agent. Hydroxyl radical (FIG. 9A): OH in the presence of […] alone (top), in the presence of 4 mM O-3a (middle), or in the presence of 4 mM R-3b (bottom). Superoxide radical (right): O2 - in DMPO alone (top), in the presence of 400 mM O-3a (middle), in the presence of 400 mM R-3b (bottom). The arrow designates a spurious signal due to an unknown radical in the cavity. The sample was analyzed in a quartz flat cell (60×10×0.25 mm) in a Bruker 200, X-band EPR spectrometer. Settings were power=1.6 mW, modulation=1 G, field modulation=100 Hz, R.G.=3.2×10^5.

[7] = tested on: endothelial cell cultures; test: Protection in endothelial cell cultures; format: cell-based
[8] = EPR spin-trap (DMPO) hydroxyl radical scavenging; settings: for scavenging of OH: EPR
Description: as §2

[9] = Spin-label/EPR membrane parameters (5- or 16-doxyl ketostearic acid in brain lipids); parameters: species or system mouse; settings: 16-doxylstearic acid; control 0.8
Description: Values are mean±SEM, n=8-12 per condition. I=p<0.05 vs. untreated injury condition, using ANOVA followed by Student-Newman-Keuls test for multiple comparisons. **=p<0.05 R-3b different than O-3a. […] The spin labels were added to lipids extracted from adult mouse brain at a ratio of 1:100. EPR settings were the same as those listed in the legend for FIGS. 9A and 9B.
^a Order parameter, S = a(T_.cent. - T .cent.)/(T - T ),
^b Correlation time, tc = 6.5 × 10^-10 wo [(ho
^c Lipid/aqueous partition factor, f = hL /hA, where hL

[10] = tested on: cortical neurons; test: Neuroprotection, general statement; format: cell-based, mouse
Description: as §1

[11] = Solubility; format: physicochemical
Source text: Solutions of carboxyfullerene were translucent brown.

[12] = tested on: FALS mice; test: Survival in transgenic model of ALS (FALS mice, Gurney G1 strain); format: in vivo, mouse; settings: 15 mg/kg/day, intraperitoneal mini-osmotic pumps
Description: The G1 line, with 18 copies and 4 times the SOD activity of wildtype animals, develops motor neuron death by 3-4 months of age, with hindlimb weakness, impaired grooming, and thinning along their flanks. Affected mice were dead before 5 months of age (Gurney et al., 1994).
C60 (C(COOH)2)3 was used to treat FALS mice (Gurney G1 strain) to determine its ability to treat FALS. At 10 weeks of age, Alzet mini-osmotic pumps (28 day, 6 (l/day, 15 mg/kg/day) containing C60 (C(COOH)2)3 (the mixed isomers, which consist of >90% O-3a) or saline were implanted intraperitoneally. The pumps were replaced at 14 weeks of age. Videotaped assessments of open field walking were performed and scored using the Bresnahan scale for spinal cord injury (Basso et al, 1995). As reported by Gurney and colleagues, these animals develop motor symptoms by approximately 90 days of age, and are moribund between 125 and 145 days of age.

[13] = tested on: wild-type animals; settings: mouse, in vivo, 15 mg/kg/day
Source text: The 8 day increase in survival reached statistical significance (p=0.041), by t-test. There was no difference in survival for FALS mice who received no pumps (123 days, n=4) or those treated with saline-filled pumps (125 days, n=6).

[14] = tested on: cortical neurons; test: Serum deprivation apoptotic neuronal death (trypan blue); format: cell-based, mouse
Description: as §1

[15] = tested on: NMDA receptor; test: NMDA-stimulated 45Ca2+ accumulation in cultured neurons; format: cell-based, mouse; settings: up to 300 (M [µM], with NMDA 300 (M, 10 min
Description: as §1, with “Mouse neocortical cultures were prepared as neuron-astrocyte co-cultures (approximately 50% astrocytes) (Rose et al., 1992) or as neuronal cultures (<2% astrocytes). Mouse” for “Mouse”
To verify that protection against NMDA-induced neuronal cell injury was not due to a reduction in NMDA-induced calcium influx, ^45 Ca^2+ tracer studies were performed. […]

c12c3c4c5c1c1c6c7c2c2c8c3c3c9c4c4c%10c5c5c1c1c6c6c%11c7c2c2c7c8c3c3c8c9c4c4c9c%10c5c5c1c1c6c6c%11c2c2c7c3c3c8c4c4c9c5c1c1c6c2c3c41 [C60, Buckminsterfullerene]
solubility (solvents) [1]: soluble only in a limited number of solvents, such as toluene or benzene

O=C(O)C1(C(=O)O)C23c4c5c6c7c8c4-c4c2c2c9c%10c%11c%12c(c-5c5c%13c%14c%15c%16c%17c(c-7c7c%18c%19c%20c%21c(c4C%204C(C(=O)O)(C(=O)O)C874)c2c2c9c4c%11c7c(c%13%12)c%14c8c%16c9c(c%18%17)c%19c%11c%21c2c2c4c7c8c9c%112)C%152C(C(=O)O)(C(=O)O)C652)C%1013 (stereo not shown) [O-3a]
anti-oxidant potency, isomers compared [2]: equipotent anti-oxidants | protection from NMDA injury vs R-3b ([3]; FIG. 10A, n=8-12 per condition): slightly better protection | protection from injury in hepatocytes vs R-3b [4]: enhanced protection over R-3b | protection against AMPA-induced neuronal death vs R-3b ([5]; FIG. 10B, n=8-12 per condition): substantially better protection | superoxide radical signal (DMPO-OOH) [6]: eliminated the superoxide radical signal | protection from injury in endothelial cell cultures vs R-3b [7]: enhanced protection over R-3b | OH signal (DMPO-OH spin adduct) ([8]; 150 (M [µM], H2O2, 15 minute period): elimination of this OH signal | scavenging of OH [8]: extremely potent scavengers of OH | Lipid/aqueous partition factors [9]: 1.0 ± 0.2

O=C(O)C1(C(=O)O)C23c4c5c6c7c8c9c%10c%11c%12c%13c%14c%15c(c6c6c4c4c%16c%17c%18c(c%19c%20c2c5c8c2c%20c5c%19c8c%19c%20c(c%21c%12c%12c%22c%23c(c(c%188)C%198C(C(=O)O)(C(=O)O)C%21%228)c%17c8c4c6c%15c(c%12%14)c%238)c%11c(c92)c%205)C%1613)C71C(C(=O)O)(C(=O)O)C%13%101 (stereo not shown) [R-3b]
anti-oxidant potency, isomers compared [2]: equipotent anti-oxidants | superoxide radical signal (DMPO-OOH) [6]: eliminated the superoxide radical signal | neuroprotection [10]: effective neuroprotectant | scavenging of OH [8]: extremely potent scavengers of OH | Lipid/aqueous partition factors [9]: 0.6

O=C(O)C1(C(=O)O)C23c4c5c6c7c8c9c(c%10c%11c2c2c4c4c%12c5c5c6c6c8c8c%13c9c9c%10c%10c%11c%11c2c2c4c4c%12c%12c5c5c6c8c6c8c%13c9c9c%10c%10c%11c2c2c4c4c%12c5c6c5c8c9c%10c2c45)C713 [dicarboxy fullerene]
solubility in aqueous solution vs hexacarboxy derivative ([11]; aqueous solution): less soluble | neuroprotective efficacy vs hexacarboxy derivative [10]: less effective neuroprotectants

C60 (C(COOH)2)3
scavenging ability towards OH vs potency for O2- radicals ([2]; OH over O2-): 10 fold | onset of symptoms [12]: delay in onset of symptoms | delay in death ([12]; p=0.041 by t-test): 8 ± 2.2 days | protection from NMDA, some experiments ([3]; 300 (M [µM]): nearly complete protection | reduction of neuronal death from NMDA, all experiments ([3]; 300 (M [µM], 24 h after 10 min NMDA, 300 µM): at least 60% | protection against NMDA excitotoxic injury ([3]; cortical neurons): protected cortical neurons against excitotoxic injury; also recorded: robust neuroprotection | reduction in neuronal cell death (NMDA), pooled data ([3]; pooled data from three experiments, FIG. 5): 75% | body weight vs untreated littermates [13]: weights were similar | solubility in water ([11]; water): at least 50 mM | reduction in neuronal death, serum deprivation ([14]; 10 (M [µM], 48 hours, trypan blue, 10 µM): 50% | apoptotic neuronal death due to serum deprivation ([14]; co-application): attenuated | reduction of neuronal cell death from AMPA ([5]; 100 (M [µM], MK-801 10 (M included), 24 h, data from 4 experiments pooled, 100 µM): > 80% | protection against AMPA excitotoxic injury ([5]; cortical neurons): protected cortical neurons against excitotoxic injury; also recorded: robust neuroprotection | 45Ca2+ accumulation [15]: not affected
